Data set [1] concerns the target T1, human cloned 5-HT2C receptor, expressed in CHO cells (Homo sapiens, UniProt P28335).
T1 construct: expressed in transfected cells; host or cells: CHO cells
T1 sequence (P28335 33-458): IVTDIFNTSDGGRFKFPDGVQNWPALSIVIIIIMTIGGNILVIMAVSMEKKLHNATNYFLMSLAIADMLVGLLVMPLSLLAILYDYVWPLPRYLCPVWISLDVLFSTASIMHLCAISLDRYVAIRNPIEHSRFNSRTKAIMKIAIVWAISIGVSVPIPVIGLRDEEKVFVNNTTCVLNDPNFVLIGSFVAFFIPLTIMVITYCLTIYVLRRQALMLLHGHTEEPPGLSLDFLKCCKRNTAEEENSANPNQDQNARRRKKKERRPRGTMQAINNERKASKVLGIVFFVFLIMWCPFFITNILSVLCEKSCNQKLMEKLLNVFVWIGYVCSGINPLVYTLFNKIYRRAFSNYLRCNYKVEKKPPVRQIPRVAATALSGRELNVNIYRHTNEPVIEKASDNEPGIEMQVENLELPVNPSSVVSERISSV
The data set can be described thus: In vitro radioligand binding affinity for 5-HT2C receptor ([3H]mesulergine). As to conditions: human cloned 5-HT2C receptor in CHO cells, [3H]mesulergine; read-out: h-5HT2C (converted).

Data set [2] deals with T2, human cloned 5-HT2A receptor, expressed in L929 cells (Homo sapiens, UniProt P28223).
T2 construct: expressed in transfected cells; host or cells: L929 cells
T2 sequence (P28223 whole entry): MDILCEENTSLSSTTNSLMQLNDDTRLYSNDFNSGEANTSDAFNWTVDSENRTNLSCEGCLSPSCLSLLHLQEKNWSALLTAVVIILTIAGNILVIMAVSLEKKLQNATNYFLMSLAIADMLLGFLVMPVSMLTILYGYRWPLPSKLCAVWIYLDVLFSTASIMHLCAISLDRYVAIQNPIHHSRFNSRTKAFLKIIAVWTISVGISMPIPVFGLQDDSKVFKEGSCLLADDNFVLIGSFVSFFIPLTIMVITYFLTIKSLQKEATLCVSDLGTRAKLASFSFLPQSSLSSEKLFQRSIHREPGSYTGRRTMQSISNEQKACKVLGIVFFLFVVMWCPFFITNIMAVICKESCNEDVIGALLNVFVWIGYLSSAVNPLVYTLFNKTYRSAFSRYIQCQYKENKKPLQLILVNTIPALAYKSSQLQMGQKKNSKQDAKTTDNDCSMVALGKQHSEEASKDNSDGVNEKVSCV
In words: In vitro radioligand binding affinity for 5-HT2A receptor ([125I]R91150). The procedure, abridged: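 Competition radioligand binding at equilibrium with varying test-compound concentrations; bound radioactivity separated and counted. 5-HT2A: human cloned receptor in L929 cells, [125I]R91150. 5-HT2C: human cloned receptor in CHO cells, [3H]mesulergine.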

Data set [3] addresses T3, NET (Rattus norvegicus, UniProt Q9WTR4).
T3 construct: Cortex from rat brain was collected and homogenised; from tissue; host or cells: rat brain cortex membranes
In words: In vitro determination of NET reuptake inhibition ([3H]Nixosetine binding, rat brain cortex membranes).

Data set [4] deals with T4, human Dopamine D2L receptor (Homo sapiens, UniProt P14416).
T4 construct: expressed in transfected cells; host or cells: CHO cells (frozen membranes)
T4 sequence (P14416 whole entry): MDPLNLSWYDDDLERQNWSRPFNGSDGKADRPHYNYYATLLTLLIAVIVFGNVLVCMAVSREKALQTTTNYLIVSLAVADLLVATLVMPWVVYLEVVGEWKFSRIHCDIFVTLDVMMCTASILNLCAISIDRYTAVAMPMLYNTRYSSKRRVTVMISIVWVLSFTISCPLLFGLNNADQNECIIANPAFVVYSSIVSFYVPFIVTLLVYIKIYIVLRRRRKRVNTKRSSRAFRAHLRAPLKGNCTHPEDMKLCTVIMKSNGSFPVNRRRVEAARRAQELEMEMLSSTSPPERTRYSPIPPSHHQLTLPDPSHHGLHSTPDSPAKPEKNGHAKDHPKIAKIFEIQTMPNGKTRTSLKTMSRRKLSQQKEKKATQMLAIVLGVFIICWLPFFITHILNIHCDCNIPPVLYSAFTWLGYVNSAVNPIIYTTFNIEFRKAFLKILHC
The data set can be described thus: In vitro binding affinity for human D2L receptor ([3H]Spiperone). As to conditions: human D2L receptor-transfected CHO cell membranes, [3H]Spiperone; read-out: h-D2L (converted). The method, then: Frozen membranes of human Dopamine D2L receptor-transfected CHO cells were thawed, briefly homogenised using an Ultra-Turrax T25 homogeniser and diluted in Tris-HCl assay buffer containing NaCl, CaCl2, MgCl2, KCl (50, 120, 2, 1, and 5 mM respectively, adjusted to pH 7.7 with HCl) to an appropriate protein concentration optimised for specific and non-specific binding. Radioligand [^3H]Spiperone (NEN, specific activity ˜70 Ci/mmol) was diluted in assay buffer at a concentration of 2 nmol/L. Prepared radioligand (50 μl), along with 50 μl of either the 10% DMSO control, Butaclamol (10-6 mol/l final concentration), or compound of interest, was then incubated (30 min, 37° C.) with 400 μl of the prepared membrane solution. Membrane-bound activity was filtered through a Packard Filtermate harvester onto GF/B Unifilterplates and washed with ice-cold Tris-HCl buffer (50 mM; pH 7.7; 6×0.5 ml). Filters were allowed to dry before adding scintillation fluid and counting in a Topcount scintillation counter. Percentage specific bound and competition binding curves were calculated using S-Plus software (Insightful).

The structures appear in SMILES notation. Read-outs that look alike come from different tables or passages of the source.

A word on the melting point: it is the temperature of the solid-liquid transition.

T3 sequence (Q9WTR4 1-597): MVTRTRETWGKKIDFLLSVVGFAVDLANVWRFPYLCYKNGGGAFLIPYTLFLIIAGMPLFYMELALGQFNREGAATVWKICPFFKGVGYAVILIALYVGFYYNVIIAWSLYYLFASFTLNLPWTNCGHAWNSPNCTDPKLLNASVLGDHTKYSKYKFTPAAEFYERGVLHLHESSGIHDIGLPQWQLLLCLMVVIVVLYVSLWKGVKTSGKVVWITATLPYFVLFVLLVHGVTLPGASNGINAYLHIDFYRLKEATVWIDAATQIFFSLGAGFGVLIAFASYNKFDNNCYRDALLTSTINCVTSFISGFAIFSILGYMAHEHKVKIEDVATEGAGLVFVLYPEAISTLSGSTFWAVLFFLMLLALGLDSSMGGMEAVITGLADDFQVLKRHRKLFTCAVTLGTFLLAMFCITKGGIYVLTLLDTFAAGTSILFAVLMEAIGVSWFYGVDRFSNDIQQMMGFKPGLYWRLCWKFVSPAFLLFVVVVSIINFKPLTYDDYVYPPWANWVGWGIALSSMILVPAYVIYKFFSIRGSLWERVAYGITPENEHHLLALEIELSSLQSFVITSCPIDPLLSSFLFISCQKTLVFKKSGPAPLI

In turn, `Fc1ccc2c(c1)[C@@H]1[C@H](C[C@@H]3CNC(=S)N31)c1ccccc1C2` [compound 8, (4aS,13bR,14aR)-6-fluoro-1,4a,9,13b,14,14a-hexahydrodibenzo[3 ′,4′:6′,7′]cyclohepta-[1′,2′:4,5]pyrrolo[1,2-c]imidazole-3(2H)-thione] returned a melting point of 150 to 151 °C. Further, in data set [1], the IC50 was 251 nM. In data set [2], this molecule showed an IC50 of 85.1 nM. In addition, in data set [3], the “NET Reuptake Inhibition” value was found to be 5.66. The IC50 in data set [4] is more than 10000 nM.
For `CN(C)[C@@H]1CO[C@H]2c3cc(F)ccc3Cc3ccccc3[C@H]2C1` [compound 32, (3S,4aR,13bR)-12-fluoro-N,N-dimethyl-2,3,4,4a,9,13b-hexahydrodibenzo[3,4:6,7]-cyclohepta[1,2-b]pyran-3-amine], the melting point was 58 to 59 °C. The IC50 in data set [1] is 132 nM. The IC50 in data set [2] (human cloned 5-HT2A receptor in L929 cells, [125I]R91150, read-out: h-5HT2A (converted)) was 676 nM. In data set [3], this molecule had an IC50 of 19.5 nM. For the same molecule, the IC50 in data set [4] was more than 1000 nM.

These data come from patent publication US20090023721A1, “Novel Substituted Tetracyclic Tetrahydrofuran, Pyrrolidine and Tetrahydrothiophene Derivatives and Their Use as a Medicament” (priority 2005, published 2009).
